Values after ≈ are worked out from the molar mass of the structure shown. Like-named read-outs stand apart in the source and are kept apart here.
Legend:
[1] = system: calf thymus topoisomerase II; assay: Inhibition of the enzyme activity of topoisomerase II; format: biochemical; details: concentration to inhibit the enzyme activity of calf thymus topoisomerase II
Method: (§1) Selectivity indexes of the compounds of the present invention and control compounds were measured using gyrase purified from of E. coli and calf thymus topoisomerase II obtained from Topogen. Co.
(§2) The selectivity index (S.I.) was calculated by the equation 1. [formula] wherein, IC100, Topo II is the concentration of a compound to inhibit the enzyme activity of topoisomerase II and IC100, Gyrase is the concentration of a compound to inhibit the enzyme activity of gyrase of E. coli.

[2] = system: Pseudomonas aeruginosa 9027; assay: Antibacterial activity in vitro (MIC, two-fold dilution, Muller Hinton agar); format: cell-based; details: 10^7 CFU/ml, 37° C., 18 hours
Method: (§3) The MIC values were determined employing a two-fold dilution method and Muller Hinton agar medium. Each of the Hoechst 345 standard strains having the concentration of 10^7CFU (colony forming unit)/ml was inoculated onto the medium, and incubated at 37° C. for 18 hours.

[3] = system: Staphylococcus aureus SG 511; assay: as above; format: cell-based; details: 37° C., 18 hours
Method: as §3

[4] = system: Klebsiella oxytoca 1522E; assay: as above; format: cell-based; details: 10^7 CFU/ml, 37° C., 18 hours
Method: as §3

[5] = system: Streptococcus faecium MD 8b; assay: as above; format: cell-based; details: 10^7 CFU/ml, 37° C., 18 hours
Method: as §3

[6] = system: Pseudomonas aeruginosa 1771M; assay: as above; format: cell-based
Method: as §3

[7] = system: Klebsiella oxytoca 1082E; assay: as above; format: cell-based; details: 10^7 CFU/ml, 37° C., 18 hours
Method: as §3

[8] = system: Streptococcus pyogenes A 77; assay: as above; format: cell-based
Method: as §3

[9] = system: Escherchia coli 078; assay: as above; format: cell-based; details: 10^7 CFU/ml, 37° C., 18 hours
Method: as §3

[10] = system: Salmonella typhymurium; assay: as above; format: cell-based; details: 10^7 CFU/ml, 37° C., 18 hours
Method: as §3

[11] = system: Pseudomonas aeruginosa 1592E; assay: as above; format: cell-based; details: 10^7 CFU/ml, 37° C., 18 hours
Method: as §3

[12] = system: Streptococcus pyogenes A 308; assay: as above; format: cell-based; details: 37° C., 18 hours
Method: as §3

[13] = system: Escherchia coli TEM; assay: as above; format: cell-based; details: 10^7 CFU/ml, 37° C., 18 hours
Method: as §3

[14] = system: Escherchia coli DC2; assay: as above; format: cell-based
Method: as §3

[15] = system: Pseudomonas aeruginosa 1771; assay: as above; format: cell-based; details: 10^7 CFU/ml, 37° C., 18 hours
Method: as §3

[16] = system: Escherchia coli DC0; assay: as above; format: cell-based
Method: as §3

[17] = system: Escherchia coli 1507E; assay: as above; format: cell-based; details: 10^7 CFU/ml, 37° C., 18 hours
Method: as §3

[18] = system: Staphylococcus aureus 285; assay: as above; format: cell-based
Method: as §3

[19] = system: Staphylococcus aureus 503; assay: as above; format: cell-based; details: 10^7 CFU/ml, 37° C., 18 hours
Method: as §3

[20] = biological target: T1, gyrase of E. coli (Escherichia coli, UniProt P0AES4+P0AES6); assay: Inhibition of the enzyme activity of gyrase; format: biochemical; details: concentration to inhibit the enzyme activity of gyrase of E. coli
T1 construct: gyrase purified from of E. coli; host or cells: E. coli
Method: as §1, §2

[21] = system: Enterobacter cloacae P99; assay: Antibacterial activity in vitro (MIC, two-fold dilution, Muller Hinton agar); format: cell-based; details: 10^7 CFU/ml, 37° C., 18 hours
Method: as §3

[22] = system: Enterobacter cloacae 1321E; assay: as above; format: cell-based; details: 10^7 CFU/ml, 37° C., 18 hours
Method: as §3

[23] = SG511, 10^7 CFU/ml, read-out: MIC
[24] = Enterococcus faecium, MD8B, read-out: MIC
[25] = Pseudomonas aeruginosa, 1771M, 18 h
[26] = A308, 10^7 CFU/ml, read-out: MIC
[27] = Pseudomonas aeruginosa 1771M, 10^7 CFU/ml, 37° C., 18 hours
[28] = Streptococcus pyogenes A 77, 10^7 CFU/ml, 37° C., 18 hours
[29] = Escherchia coli DC2, 10^7 CFU/ml, 37° C., 18 hours
[30] = Escherchia coli DC0, 10^7 CFU/ml, 37° C., 18 hours
[31] = Staphylococcus aureus 285, 10^7 CFU/ml, 37° C., 18 hours

T1 sequence (P0AES4 whole entry, one chain of several): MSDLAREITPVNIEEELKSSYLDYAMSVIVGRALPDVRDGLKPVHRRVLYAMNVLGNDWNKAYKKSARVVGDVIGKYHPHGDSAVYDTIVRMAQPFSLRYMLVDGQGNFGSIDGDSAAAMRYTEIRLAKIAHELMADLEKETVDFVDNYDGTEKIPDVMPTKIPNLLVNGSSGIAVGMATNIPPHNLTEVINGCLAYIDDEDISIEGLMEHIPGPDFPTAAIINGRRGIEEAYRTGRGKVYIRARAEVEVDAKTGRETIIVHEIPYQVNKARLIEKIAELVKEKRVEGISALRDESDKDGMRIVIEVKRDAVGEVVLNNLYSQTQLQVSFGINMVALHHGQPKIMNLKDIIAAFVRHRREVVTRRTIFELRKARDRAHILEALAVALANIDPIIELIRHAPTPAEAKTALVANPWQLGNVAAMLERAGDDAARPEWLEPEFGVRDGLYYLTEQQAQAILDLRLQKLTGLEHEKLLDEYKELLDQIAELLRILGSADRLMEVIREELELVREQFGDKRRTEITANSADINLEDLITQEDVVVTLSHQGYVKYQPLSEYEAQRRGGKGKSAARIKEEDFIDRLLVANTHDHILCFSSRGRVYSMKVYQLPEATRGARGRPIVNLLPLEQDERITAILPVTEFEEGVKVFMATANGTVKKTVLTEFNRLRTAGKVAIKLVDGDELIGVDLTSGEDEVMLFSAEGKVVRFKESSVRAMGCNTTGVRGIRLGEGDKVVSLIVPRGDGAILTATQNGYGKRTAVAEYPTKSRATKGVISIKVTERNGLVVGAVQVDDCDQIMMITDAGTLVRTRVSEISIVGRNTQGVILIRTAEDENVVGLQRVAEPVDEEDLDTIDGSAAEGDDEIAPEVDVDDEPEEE

| Compound | IC100, Topo II [1] | MIC ([2]; read-out: MIC) [µg/mL] | MIC [3, 23] [µg/mL] | MIC ([4]; read-out: MIC) [µg/mL] | MIC [5, 24] [µg/mL] | MIC [6, 25] [µg/mL] | MIC ([7]; read-out: MIC) [ng/mL] | MIC ([9]; read-out: MIC) [ng/mL] | MIC ([10]; read-out: MIC) [ng/mL] | MIC ([11]; read-out: MIC) [µg/mL] | MIC [12, 26] [µg/mL] | MIC ([13]; read-out: MIC) [ng/mL] | MIC ([15]; read-out: MIC) [µg/mL] | MIC ([16]; 18 h) [µg/mL] | MIC ([17]; read-out: MIC) [ng/mL] | MIC ([19]; read-out: MIC) [µg/mL] | IC100, Gyrase [20] [µg/mL] | MIC [2] [µg/mL] | MIC ([3]; 10^7 CFU/ml) [µg/mL] | MIC [4] [µg/mL] | also measured |
| --- | --- | --- | --- | --- | --- | --- | --- | --- | --- | --- | --- | --- | --- | --- | --- | --- | --- | --- | --- | --- | --- |
| O=C(O)c1cn(C2CC2)c2cc(N3CCNCC3)c(F)cc2c1=O [Ciprofloxacin, 1-cyclopropyl-6-fluoro-7-(piperazin-1-yl)-4-oxoquinoline-3-carboxylic acid, reference compound] | 500 µg/mL | 0.195 (≈ 0.589 µM) | 0.195 (≈ 0.589 µM) | 0.013 (≈ 0.0392 µM) | 0.391 (≈ 1.18 µM) | 0.049 (≈ 0.148 µM) | < 2 | 4 (≈ 0.0121 µM) | 7 (≈ 0.0211 µM) | 0.195 (≈ 0.589 µM) | 3.12 (≈ 9.43 µM) | 7 (≈ 0.0211 µM) | 0.195 (≈ 0.589 µM) | 0.195 (≈ 0.589 µM) | 7 (≈ 0.0211 µM) | 0.391 (≈ 1.18 µM) | 0.5 |  |  |  | MIC ([8]; Streptococcus pyogenes, A77, 18 h): 0.781 µg/mL (≈ 2.36 µM); MIC ([14]; 18 h): 0.049 µg/mL (≈ 0.148 µM); MIC ([18]; Staphylococcus aureus, 285, 18 h): 0.781 µg/mL (≈ 2.36 µM) |
| COc1c(N2CCC(CN)(c3ccccn3)C2)c(F)cc2c(=O)c(C(=O)O)cn(C3CC3)c12 (stereo not shown) [Compound 3, 1-cyclopropyl-6-fluoro-8-methoxy-7-[{3-aminomethyl-3-(pyridin-2-yl)pyrrolidin}-1-yl]-4-oxo-1,4-dihydroquinolin-3-carboxylic acid] | 1,000 μg/ml |  |  |  |  |  |  |  |  |  |  |  |  |  |  |  | 0.2 | 0.195 (≈ 0.431 µM) | 0.007 (≈ 0.0155 µM) | 0.013 (≈ 0.0287 µM) | MIC [5]: 0.007 µg/mL (≈ 0.0155 µM); MIC [21]: 7 ng/mL (≈ 0.0155 µM); MIC [6, 27]: 0.098 µg/mL (≈ 0.217 µM); MIC [7]: <2 ng/mL; MIC [8, 28]: 0.007 µg/mL (≈ 0.0155 µM); MIC [9]: <2 ng/mL; MIC [10]: 7 ng/mL (≈ 0.0155 µM); MIC [11]: 0.195 µg/mL (≈ 0.431 µM); MIC ([12]; 10^7 CFU/ml): 0.013 µg/mL (≈ 0.0287 µM); MIC [13]: 7 ng/mL (≈ 0.0155 µM); MIC [14, 29]: 0.013 µg/mL (≈ 0.0287 µM); MIC [15]: 0.098 µg/mL (≈ 0.217 µM); MIC [16, 30]: 0.049 µg/mL (≈ 0.108 µM); MIC [17]: 7 ng/mL (≈ 0.0155 µM); MIC [18, 31]: 0.013 µg/mL (≈ 0.0287 µM); MIC [19]: 0.007 µg/mL (≈ 0.0155 µM); MIC [22]: <2 ng/mL |
| COc1c(N2CCC(N)(c3ccncc3)C2)c(F)cc2c(=O)c(C(=O)O)cn(C3CC3)c12 (stereo not shown) [Compound 11, 1-cyclopropyl-6-fluoro-8-methoxy-7-[{3-amino-3-(pyridin-4-yl)pyrrolidin}-1-yl]-4-oxo-1,4-dihydroquinolin-3-carboxylic acid] | 1,000 μg/ml |  |  |  |  |  |  |  |  |  |  |  |  |  |  |  | 0.4 | 0.195 (≈ 0.445 µM) | 0.013 (≈ 0.0296 µM) | 0.013 (≈ 0.0296 µM) | MIC [5]: 0.025 µg/mL (≈ 0.057 µM); MIC [21]: 4 ng/mL (≈ 0.00912 µM); MIC [6, 27]: 0.098 µg/mL (≈ 0.224 µM); MIC [7]: 2 ng/mL (≈ 0.00456 µM); MIC [8, 28]: 0.013 µg/mL (≈ 0.0296 µM); MIC [9]: <2 ng/mL; MIC [10]: 7 ng/mL (≈ 0.016 µM); MIC [11]: 0.195 µg/mL (≈ 0.445 µM); MIC ([12]; 10^7 CFU/ml): 0.025 µg/mL (≈ 0.057 µM); MIC [13]: 7 ng/mL (≈ 0.016 µM); MIC [14, 29]: 0.013 µg/mL (≈ 0.0296 µM); MIC [15]: 0.195 µg/mL (≈ 0.445 µM); MIC [16, 30]: 0.049 µg/mL (≈ 0.112 µM); MIC [17]: 13 ng/mL (≈ 0.0296 µM); MIC [18, 31]: 0.013 µg/mL (≈ 0.0296 µM); MIC [19]: 0.007 µg/mL (≈ 0.016 µM); MIC [22]: 2 ng/mL (≈ 0.00456 µM) |
| CC1CN(c2c(F)c(N)c3c(=O)c(C(=O)O)cn(C4CC4)c3c2F)CC(C)N1 (stereo not shown) [Sparfloxacin, 1-cyclopropyl-5-amino-6,8-difluoro-7-(3,5-dimethylpiperazin-1-yl)-4-oxoquinoline-3-carboxylic acid, reference compound] | 500 µg/mL | 0.781 (≈ 1.99 µM) | 0.098 (≈ 0.25 µM) | 0.025 (≈ 0.0637 µM) | 0.391 (≈ 0.996 µM) | 0.195 (≈ 0.497 µM) | < 2 | 4 (≈ 0.0102 µM) | 7 (≈ 0.0178 µM) | 0.781 (≈ 1.99 µM) | 0.391 (≈ 0.996 µM) | 13 (≈ 0.0331 µM) | 0.781 (≈ 1.99 µM) | 0.195 (≈ 0.497 µM) | 25 (≈ 0.0637 µM) | 0.049 (≈ 0.125 µM) | 1.0 |  |  |  | MIC ([21]; read-out: MIC): 7 ng/mL (≈ 0.0178 µM); MIC ([8]; A77, Streptococcus pyogenes A 77, 10^7 CFU/ml, 37° C., 18 hours, read-out: MIC): 0.195 µg/mL (≈ 0.497 µM); MIC ([18]; Staphylococcus aureus 285, 10^7 CFU/ml, 37° C., 18 hours, read-out: MIC): 0.049 µg/mL (≈ 0.125 µM); MIC ([22]; read-out: MIC): 4 ng/mL (≈ 0.0102 µM) |
